In PubChem BioAssay AID179 (DTP/NCI, 2004):
Activity calls are given as the source filed them.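 Rule for the calls: active = compounds giving half or more protection of infected cells from virus-caused growth loss, again on retest; inactive = the rest.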

Test system: CEM cells HIV-1 protection, formazan growth assay
Assay: NCI AIDS Antiviral Assay
Conditions: for IC50: measured here: growth of uninfected CEM cells
In short: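 Protection of CEM cells against HIV-1 was scored from cell growth (soluble formazan) across five concentrations, with parallel uninfected cells. Lack of protection may reflect toxicity.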

| Structure (SMILES) | EC50 [µM] | IC50 [µM] | outcome |
| --- | --- | --- | --- |
| CCOC(=O)CC(C)C1(C(=O)OCC)CCCCC1=O (stereo unspecified) | > 331 | > 331 | – |
| COC(=O)C1=CC(=O)C(C(=O)Nc2ccc(OC)cc2)C(c2ccccc2)O1 (stereo unspecified) | > 7.08 | > 7.08 | – |
| CC1=C(C)CS(=O)N(c2ccccc2)C1 (stereo unspecified) | > 200 | 89.1 | – |
| Cc1cc(C)c(-n2[nH]c(=O)n(C)c2=O)c(C)c1 | > 200 | > 200 | – |
| [N-]=[N+]=C(C(=O)CN1CCCC1=O)S(=O)(=O)c1ccccc1 | > 813 | 437 | – |
| O=C1CC(c2ccccc2)S(=O)c2ccccc2N1 (stereo unspecified) | > 200 | > 200 | – |
| C/C(=N\N=C(N)N)C(CN(CC(C)C)CC(C)C)C(=O)Nc1ccc(C)cc1C (stereo unspecified) | > 17.8 | > 17.8 | – |
| N#Cc1cnn2c1n[n+]([O-])c1ccc(Cl)cc12 | > 100 | 7.76 | – |
| Cn1cc(S(=O)(=O)NC(=O)Nc2ccc(Cl)cc2)c(=O)c2ccc(Cl)cc21 | > 200 | 36.3 | – |
| CCCCn1cnnc1NS(=O)(=O)c1cc(C)c(Cl)cc1SCC(=O)O | > 200 | > 200 | – |
| CCOC(=O)NC(NNc1ccc([N+](=O)[O-])cc1[N+](=O)[O-])(C(F)(F)F)C(F)(F)F | > 200 | 43.7 | – |
| CSc1ccc(/C=N\C(=N)SN)cc1C | > 200 | 18.6 | – |
| CC1(Cl)CC2OC3(Br)C=CC(C)(O)C2(CC1Br)C3(C)C (stereo unspecified) | > 102 | > 102 | – |
| CC(=O)NNC(=O)c1ccccc1O | > 200 | 29.5 | – |
| CCS1=C2C(=O)CC(C)(C)CC2=Nc2ccccc21 (stereo unspecified) | > 200 | > 200 | – |
| O=C(O)c1c(Cl)c(Cl)c(Cl)c(Cl)c1-c1c2ccc(=O)cc-2oc2cc(O)ccc12 | 6.46 | 29.5 | – |
| CN(C)CCC(/C=C/c1ccccc1)=N\Nc1ccc(Cl)cc1 | > 100 | 10.7 | – |
| Cc1cc(C)c(C(=O)C(C)C(c2ccccc2)c2ccc(Cl)cc2)c(C)c1 (stereo unspecified) | > 26.3 | > 26.3 | – |
| CCOC(=O)C(C(=O)OCC)C(C(=O)OCC)C(=O)OCC | > 200 | > 200 | – |
| CC(=O)[CH-]C(C)=O.CC(=O)[CH-]C(C)=O.N=CC=N.[Sn+2] | > 69.2 | 1.45 | – |
| COc1cc(/C=C(\C#N)C(=O)c2ccccc2)ccc1OCc1ccccc1 | > 19.5 | > 19.5 | – |
| Fc1ccccc1C1SCc2nc3ccccc3n21 (stereo unspecified) | 11 | 38.9 | – |
| Cc1ccc(S(=O)(=O)ON2C(=O)c3c(N)c(C#N)c(-c4ccccc4)c(-c4ccccc4)c3C2=O)cc1 | > 200 | 3.8 | – |

| Structure (SMILES) | EC50 [µM] | IC50 [µM] | outcome |
| --- | --- | --- | --- |
| CC1(C)C=N[N+]2(C)C3C=CC(CC3)C12 (stereo unspecified) | – | – | inactive |
| CCOC(=O)C1CCCC1S(=O)(=O)c1ccc(C)cc1 (stereo unspecified) | > 200 | > 200 | – |
| O=C(/C=C/c1ccc(Cl)cc1)c1cccs1 | > 200 | 1.23 | – |
| O=S1(=O)CCC(Br)c2ccccc2C1 (stereo unspecified) | > 200 | > 200 | – |
| O=C1c2c(O)cccc2C(C(=O)CCCCCC(=O)C2c3cccc(O)c3C(=O)c3c(O)cccc32)c2cccc(O)c21 | > 6.61 | 6.17 | – |
| Cc1cc(C)c(C(=O)OC(c2ccccc2)C(c2ccccc2)N2CCOCC2)c(C)c1 (stereo unspecified) | – | – | inactive |
| O=C(NCCc1c(-c2ccccc2)[nH]c2ccccc12)C(F)(F)C(F)(F)F | > 200 | 25.7 | – |
| COc1cc2c(cc1OC)C(c1ccccc1CCCCl)=NCC2 | > 200 | 75.9 | – |
| CCOC(=O)c1ccc(C)c(N=NN(C)C)c1 | – | – | inactive |
| C(#C[C@@]12CCC[C@@H]1NCO2)c1ccc2c(c1)OCO2 | > 200 | 50.1 | – |
| Cc1cc(OC(=O)NCn2cc(-c3ccccc3)nn2)ccc1Cl | > 200 | 95.5 | – |
| Cc1nnc(NC2=NCCO2)s1 | > 200 | > 200 | – |
| Cc1cc(=O)oc2c(CNC(CC(C)C)C(=O)O)c(O)ccc12 (stereo unspecified) | > 200 | > 200 | – |
| CC(=O)C1=C2SCCN2C(=O)CC1 | > 135 | > 135 | – |
| O=NN1C(c2ccccc2)CNC(=O)CC1c1ccccc1 (stereo unspecified) | – | – | inactive |
| COc1ccc2c3c([nH]c2c1[N+](=O)[O-])C(C)=NCC3 | – | – | inactive |
| Cc1ccc(S(=O)(=O)/N=C2/N(C)CCCS2(=O)=O)cc1 | > 200 | > 200 | – |
| O=C(CCN1CCCCC1)c1cc2cc([N+](=O)[O-])ccc2oc1=O | > 219 | 112 | – |
| OCc1cn(C(c2ccccc2)(c2ccccc2)c2ccccc2)cn1 | 195 | > 200 | – |
| O=C(O)COc1ccc(O)c2c1C(=O)CCCC2=O | – | – | inactive |
| Cc1ccc(-n2cc(-c3ccc(Cl)cc3)c3c2N=CN2NC(c4ccco4)=NC32)cc1 (stereo unspecified) | > 100 | 74.1 | – |
| NC1=Nc2ncccc2C(=O)NN1 | > 200 | 117 | – |
| NC(Cc1ccc(O)c(O)c1)P(=O)(O)O (stereo unspecified) | > 200 | 24.5 | – |

| Structure (SMILES) | EC50 [µM] | IC50 [µM] | outcome |
| --- | --- | --- | --- |
| O=C(COc1ccc2c(=O)cc(-c3ccccc3)oc2c1)N1CCN(c2ccccc2)CC1 | > 16.2 | > 16.2 | – |
| COc1ccc2c(c1)c1c(n2CCN2CCCCC2)-c2ccccc2CC1 | > 200 | 13.2 | – |
| O=[N+]([O-])/C=C(\CS(=O)(=O)c1ccccc1)c1ccc2c(c1)OCO2 | > 81.3 | 31.6 | – |
| CNC(=O)N(Cc1ccccc1)C[C@@H]1CCCN1C(C)=O | > 200 | > 200 | – |
| O=C1C=C(N2CCOCC2)c2cnccc2C1=O | – | – | inactive |
| Nc1nc(Cl)c(N=Nc2ccc(Cl)cc2)c(NCC2(CO)CC2)n1 | > 200 | > 200 | – |
| O=C(NCCCNC(=O)c1ccc2cc(O)c(O)cc2c1)c1ccc2cc(O)c(O)cc2c1 | – | – | inactive |
| COC(=O)[C@H](Cc1ccccc1)NP(=O)(OCCC#N)OCC1OC(n2cc(C)c(=O)[nH]c2=O)CC1N=[N+]=[N-] (stereo partly specified) | 0.513 | > 200 | – |
| C#CCn1c2c(c3ccccc3c1=O)C(=O)c1ccccc1-2 | > 63.1 | > 63.1 | – |
| CCCCCCCCCCCCCCCC(=O)OCCOCCOCCOCc1ccccc1 | – | – | inactive |
| O=c1[nH]nc(Cc2ccccc2)n1/N=C/c1c(O)ccc2ccccc12 | 40.7 | 174 | – |
| CC1=C(O[Si](C(C)C)(C(C)C)C(C)C)C2CC1[C@@H]1C(=O)N(c3ccccc3)C(=O)[C@H]21 (stereo partly specified) | > 6.46 | > 6.46 | – |
| C=CCSC(C)=O | > 200 | > 200 | – |
| COc1cc2c(cc1OC)C1=NN(c3ccccc3)C(=O)C1CC2 (stereo unspecified) | > 8.51 | > 8.51 | – |
| COc1ccc(CN=CN/C(C#N)=C(\N)C#N)cc1OC | > 200 | > 200 | – |
| Brc1ccccc1C1SCc2nc3ncccc3n21 (stereo unspecified) | > 77.6 | > 77.6 | – |
| COC(=O)CC1CN(C(=O)OCc2ccccc2)C(C)(C)O1 (stereo unspecified) | > 200 | > 200 | – |
| CCOP(=O)(OCC)Oc1ccc(Sc2ccc(OP(=O)(OCC)OCC)cc2)cc1 | > 200 | 85.1 | – |
| CC1OC(OCC2OC(Oc3c(-c4ccc(O)cc4)oc4cc(OC5OC(C)C(O)C(O)C5O)cc(O)c4c3=O)C(O)C(O)C2O)C(O)C(O)C1O (stereo unspecified) | – | – | active |
| CNc1c(Cl)cc(/C=C2\C=Cc3ccccc32)cc1Cl | > 17.4 | 12.9 | – |
| O=S(=O)(O)c1cc2cc(S(=O)(=O)O)c(O)cc2cc1O | – | – | inactive |
| N#C/C(=C\c1cc2ccccc2c2ccccc12)c1ccccc1 | > 12.3 | 6.46 | – |
| CC(Cl)CN1c2ccccc2Sc2ccc(Cl)cc21 (stereo unspecified) | > 200 | 132 | – |

| Structure (SMILES) | EC50 [µM] | IC50 [µM] | outcome |
| --- | --- | --- | --- |
| CCC1=CC2CN3CCc4c([nH]c5ccccc45)C(C(=O)OC)(C2)C13 (stereo unspecified) | – | – | inactive |
| NNC(=S)N/N=C/C(Cl)=C(\Cl)C(=O)O | > 28.2 | > 28.2 | – |
| Nc1ccc(N=Nc2ccc(/C=C/c3ccc(N=Nc4ccc(N)c5cc(S(=O)(=O)O)ccc45)cc3S(=O)(=O)O)c(S(=O)(=O)O)c2)c2ccc(S(=O)(=O)O)cc12 | > 107 | 30.2 | – |
| CN(O)C(=S)c1ccccc1 | > 14.8 | 0.112 | – |
| CC1=NN(C(=O)CC(=O)Nc2ccccc2)C(=O)C1N=Nc1ccc(C(=O)O)cc1 (stereo unspecified) | > 200 | 58.9 | – |
| O=C1Nc2cc(F)ccc2C1=O | > 1510 | 251 | – |
| NC(=O)NC12CC3CC(CC(F)(C3)C1)C2 | > 1170 | > 1170 | – |
| Cc1ccccc1C1=[N+]([O-])c2ccccc2C1=O | – | – | inactive |
| O=C(O)CCCCCCCCCCC(=O)O | > 148 | > 148 | – |
| O=C(OCC1CCCN2CCCCC12)c1ccncc1 (stereo unspecified) | 19.1 | > 200 | – |
| CCNC(=O)Sc1ccccc1C(=O)N[C@H](C)C(N)=O | 1.15 | 93.3 | – |
| N#C/C(=C(\O)c1ccccc1)c1nc2ccccc2[nH]1 | > 69.2 | > 69.2 | – |
| CN(C)/C=N/c1nc2ncn(CCOC(=O)c3ccccc3)c2c(=O)[nH]1 | > 708 | > 708 | – |
| C1COC2(CNCC3(CNC2)OCCO3)O1 | > 200 | 174 | – |
| CS(=O)(=O)C1S(=O)(=O)OCCOS1(=O)=O | > 891 | > 891 | – |
| CCOC(=O)C1(O)N=C(c2ccccc2)c2ccccc2-n2cccc21 (stereo unspecified) | > 200 | > 200 | – |
| O=c1n(-c2ccccc2)c(=O)n2n1C1C=CC2C23C=CC12CCCC3 (stereo unspecified) | > 100 | 77.6 | – |
| COc1cc(C(c2c(O)c3ccccc3oc2=O)c2c(O)c3ccccc3oc2=O)cc(OC)c1OC | > 200 | 93.3 | – |
| OC1CCOc2ccccc21 (stereo unspecified) | > 200 | > 200 | – |
| CCOC(=O)Nc1ccc2c(c1)c(CCCCCCc1nc3ccccc3c3ccc(NC(=O)OCC)cc13)nc1ccccc12 | > 100 | 21.4 | – |
| COC1=C2C[C@](OC)(C#CC=CC#CC2O)CC1(C)C (stereo partly specified) | > 200 | 97.7 | – |
| O=C(O)c1ccccc1/C=C1\Cc2ccc3c(c2C1=O)CCCC3 | > 200 | 41.7 | – |
| CCCCN(CCCC)C1=Nc2ccccc2-n2c(nnc2C(=O)OCC)C1 | > 200 | 41.7 | – |
